Results on 9 molecules are retold here after patent US20120277265A1, “NOVEL POLYQUINOLINE DERIVATIVES AND THE THERAPEUTIC USE THEREOF” (CENTRE NATIONAL DE LA RECHERCHE SCIENTIFIQUE (C.N.R.S.), priority 2005, published 2012).

Data set [1] is described as follows: Stability constants of competing chelators for Zn(II) (NIST / Sillen-Martell; log Kapp by Eq. 1-2). Particulars: for log Kapp of comparison chelators for Zn(II): comparison chelators of b563; for log K1 app, Zn(II): at pH = 7.4, by Eq. 1 and 2.
From the text: log Kapp=log K-log α (Eq. 1)
α=[H^+]^n/(Ka1×Ka2×Ka3× . . . Kan)+[H^+]^n-1/(Ka1×Ka2×Ka3× . . . Kan-1)+ . . . +[H^+]/Ka1+1 (Eq. 2)
A short description of data set [2]: Number of ZnCl2 equivalents for the ligand to be entirely in the form of Zn(II) complex. The class given is binding. To be noted: competition with the tris buffer and the DMSO.
Data set [3] can be described thus: Competition reaction between ligand (Ls), CuCl2 and competing chelator (Lc), UV-visible; affinity constants.
Method: An organic solvent (CH3OH, dioxane or DMSO) was added in order to achieve good solubility of all the ligands and metal complexes in the concentrations used in these experiments. Monitoring has shown that all the ligands and metal complexes examined yield results corresponding to the Beer-Lambert Law in the experimental conditions used.
Lc competing chelators were selected to provide a range of stability constants for the metal ion M presenting intervals of approximately one or two log units, as well as to make it possible for each competition experiment to quantify one of the Ls, MLs, Lcc or MLc species with a UV-vis spectrum wavelength without contaminating the three other species (FIG. 7). […] As the concentration [MLs]=x % of C is measured on the UV-visible spectra, the concentrations [Ls]=(1−x) % of C, [MLc]=(1−x) % of C and [Lc]=x % of C can be deduced therefrom and:
Data set [4] in a line: UV-visible spectrophotometric titration with CuCl2 (metal/ligand stoichiometry). The class given is binding. To be noted: 15 μM ligand; Tris-HCl buffer pH 7.4/organic solvent, per ligand as in Table 3 column Solvent. The procedure:
(§1) An organic solvent (CH3OH, dioxane or DMSO) was added in order to achieve good solubility of the ligands and metal complexes in the concentrations used in these experiments. Exact proportions of the organic solvent/buffer mixture are specified for each UV-visible characterisation of the different ligands or metal complexes.
(§2) Aliquot portions of concentrated CuCl2 or ZnCl2 solutions (M) are added to a 15 μM ligand solution so as to induce only negligible variations in volume. After each addition, changes in absorption spectra are observed immediately and are consistent between two additions, which corresponds to a rapid complexing process. The exact absorption values relating to each ligand and the copper(II) or zinc(II) complexes thereof are detailed hereinafter in the Experimental part (in the Synthesis part for ligands and hereinafter for the metal complexes).
(§3) The stoichiometry of the different ligands (L) for Cu(II) or ZN(II) have therefore been determined spectrophotometrically by metal ion titration. In this example, for an M/L ratio increasing from 0 to 1, π→π* with transition, centred at 251 nm for the free ligand, is shifted to a lower energy with a concomitant appearance of an absorption band in the visible region of the spectrum (λmax to 383 nm), which is probably the result of an MLCT transition. For greater M/L ratios, no additional change in the UV-visible absorption spectra is observed.

A further data set addresses T1, Aβ1-42 (Homo sapiens, UniProt P05067).
T1 construct: The β-amyloid peptide Aβ1-42 (Aβ1-42) was synthesised, purified (to a purity greater than 95%); made in house; host or cells: chemical peptide synthesis (no expression host)
Put plainly: Inhibition of the precipitation of Aβ1-42 by the addition of ligand (Micro BCA assay of soluble/aggregated peptide). The class given is biochemical. To be noted: Aβ1-42 5 μM, pH 7.4. The gist of the method: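 Aβ1-42 (5 μM) pre-aggregated 1 h at 37 °C with stirring in 20 mM Tris-HCl/150 mM NaCl pH 7.4, with or without CuCl2, ZnCl2 or FeCl3 (20 μM). Ligand (200 μM, DMSO) added, 1 further hour at 37 °C; after centrifugation, peptide in supernatant and pellet quantified by Micro BCA against BSA standards.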

The nature of data set [5]: UV-visible spectrophotometric titration with ZnCl2 (metal/ligand stoichiometry). Particulars: 15 μM ligand; Tris-HCl buffer pH 7.4/organic solvent, per ligand as in Table 3 column Solvent. The class given is binding. The procedure: as §1, §2, §3
Data set [6] can be described thus: Determination of log D7.4 (1-octanol / Tris-HCl buffer). The class given is physicochemical. Particulars: 1-octanol / 20 mM Tris-HCl buffer containing 150 mM NaCl (pH = 7.4) (1/1, v/v). Summed up:
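Ligand partitioned between 1-octanol and 20 mM Tris-HCl pH 7.4 with 150 mM NaCl: vortexed 3 min at ambient temperature, centrifuged, each phase quantified by UV-visible spectrophotometry. log D7.4 is log of octanol/buffer concentration ratio, measured three times.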

Data set [7] concerns the target T2, copper complexes of Aβ1-42 peptide (Homo sapiens, UniProt P05067).
T2 construct: The β-amyloid peptide Aβ1-42 (Aβ1-42) was synthesised, purified (to a purity greater than 95%); made in house; host or cells: chemical peptide synthesis (no expression host)
Kind of data set: Hydrogen peroxide produced by Aβ1-42 in the presence of CuCl2, ascorbate, air and ligand (Amplex Red H2O2/HRP). The class given is biochemical. Particulars: ligand 1 eq/Cu(II) (0.4 μM); CuCl2 0.4 μM, ascorbate 10 μM, air.

Test in data set [8]: as above
The class given is biochemical. To be noted: ligand 1 eq/Cu(II) (0.4 μM); CuCl2 0.4 μM, ascorbate 10 μM, air.

A short description of data set [9]: Competition reaction between ligand (Ls), ZnCl2 and competing chelator (Lc), UV-visible; affinity constants. The class given is binding. Particulars: Ls/ZnCl2/Lc 1/1/1 at 15 μM; solvent per ligand as in Table 3. The procedure:
An organic solvent (CH3OH, dioxane or DMSO) was added in order to achieve good solubility of all the ligands and metal complexes in the concentrations used in these experiments.
As the concentration [MLs]=x % of C is measured on the UV-visible spectra, the concentrations [Ls]=(1−x) % of C, [MLc]=(1−x) % of C and [Lc]=x % of C can be deduced therefrom and:
In these conditions, [MLs]=[MLc]; [MLs]+[Lc]=Y, y≧50 and:
When log Ks 6, these equations are not used since the percentages of metal ion which is free in the solution or chelated by the solvent or the buffer are not negligible.

Data set [10] can be described thus: Stability constants of competing chelators for Cu(II) (NIST / Sillen-Martell; log Kapp by Eq. 1-2). The class given is binding. To be noted: at pH = 7.4, by Eq. 1 and 2. The text has this: Department of Commerce) and […]
The conditions of data set [11]: 25° C., cited from earlier work; for log K2 (stability constant for the M(Lc)2 species), Cu(II): ionic strength 0.1-0.2; for log K1 (stability constant for the MLc species), Cu(II): ionic strength 0.1-0.2, metal ion to chelator 1/1.
For data set [12] the following is noted: 25° C., cited from earlier work; for log K1 (stability constant for the MLc species), Zn(II): ionic strength 0.1-0.2, metal ion to chelator 1/1.
[13] abbreviates: Ls/CuCl2/Lc 1/1/1 at 15 μM, solvent per ligand as in Table 3.

T1 sequence (P05067 672-713): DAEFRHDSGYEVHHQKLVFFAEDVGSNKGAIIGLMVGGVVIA
T2 sequence (P05067 672-713 limits assumed, one chain of several): as the sequence (P05067 672-713) above

Turning to `c1cnc2c(c1)ccc1cccnc12` [1,10-phenanthroline], in [1], the “log Kapp of comparison chelators for Zn(II)” value is 6.3. Moreover, the “number of ZnCl2 equivalent for 15 μM of ligand to be entirely in the form of Zn(II) complex” value in [2] came out at 50 eq ZnCl2.
On to `Oc1c(I)cc(Cl)c2ccc(CCc3ccc4c(Cl)cc(I)c(O)c4n3)nc12` [Compound 9, 2,2′-(1,2-Ethanediyl)-bis(5-chloro-7-iodo-8-hydroxyquinoline)], for which, in data set [3] (setting [13]), the “percentage of the CuLs species at equilibrium, competing ligand Dien” value is on record as 100%; the “percentage of the CuLs species at equilibrium, competing ligand EDTA” value was determined as 60%; the “percentage of the CuLs species at equilibrium, competing ligand Tetren” value is reported as 0%; the “percentage of the CuLs species at equilibrium, competing ligand Trien” value worked out at 45%. The “number of Lc equivalents making it possible to form 50% of CuLs, Lc = Trien” value in data set [3] (mixture of Ls (15 μM, 1 equivalent) and CuCl2 (1/1, mol/mol)) came to 0.75 eq. In addition, the “Complex observed by titration with Cu^II (observed L/Cu(II) stoichiometry)” value in [4] is on record as “LCu^II(1/1)”. Also, on Aβ1-42 (20 μM CuCl2, 1 h 37° C. then 1 h with 200 μM ligand), the “CuCl2 % soluble Aβ” value was found to be 19%. At Aβ1-42 (20 μM FeCl3, 1 h 37° C. then 1 h with 200 μM ligand), the “FeCl3 % soluble Aβ” value came to 38%. Moreover, the “ZnCl2 % soluble Aβ” value at Aβ1-42 (20 μM ZnCl2, 1 h 37° C. then 1 h with 200 μM ligand) is 47%. Moreover, the “without metal % soluble Aβ” value at Aβ1-42 (no metal salt, 1 h 37° C. then 1 h with 200 μM ligand) worked out at 36%. In addition, the “Complex observed by titration with Zn^II (observed L/Zn(II) stoichiometry)” value in data set [5] is listed as “LZn^II(1/1)”. In data set [6], this molecule registered a logD at 3 min of 5.6 ± 0.5. For the same molecule, in data set [7], the “amount of H2O2, 0.2 μM Aβ1-42 Cu/Aβ = 2” value worked out at 0.82 ± 0.08 nmol and the “amount of H2O2, 0.5 μM Aβ1-42 Cu/Aβ = 0.75” value worked out at 0.82 nmol. Besides, in data set [8], the “amount of H2O2, without Aβ1-42” value is 0.66 nmol. Further, in data set [9], the “percentage of ZnLs species at equilibrium, competing ligand EDTA” value is given as 65%; the “percentage of ZnLs species at equilibrium, competing ligand NTA” value is given as 100%; the “percentage of ZnLs species at equilibrium, competing ligand Trien” value turned out to be 100%.
With `NCCNCCN` [Dien, diethylenetriamine], the “log K1 app, Cu(II)” value in data set [10] worked out at 11.8. Also, the “log K2 (stability constant for the M(Lc)2 species), Cu(II)” value (from here on “log K2 … Cu(II)”) in [11] is 5.0.
As for `NCCN` [EDA, ethylenediamine], the “log K1 app, Cu(II)” value in data set [10] is given as 7.8. Moreover, in data set [11], the “log K2 … Cu(II)” value is reported as 9.1.
For the molecule `O=C(O)CN(CCOCCOCCN(CC(=O)O)CC(=O)O)CC(=O)O` [EGTA, ethylenebis(oxyethylenenitrilo)-tetraacetic acid], the “log K1 app, Zn(II)” value in data set [1] stood at 9.4.
Regarding `O=C(O)CN(CCO)CC(=O)O` [HIDA, N-(2-hydroethyl)iminodiacetic acid], the “log K1 app, Cu(II)” value in data set [10] turned out to be 10.5. Further, in data set [11], the “log K1 (stability constant for the MLc species), Cu(II)” value is 11.8.
Regarding `O=C(O)CN(CC(=O)O)CC(=O)O` [NTA, nitrilotriacetic acid], the “log K1 (stability constant for the MLc species), Zn(II)” value in [12] is 10.5. Further, in data set [12] (ionic strength 0.1-0.2), the “log K2 (stability constant for the M(Lc)2 species), Zn(II)” value is reported as 3.8. The “log K1 app, Zn(II)” value in [1] is reported as 8.0.
In the case of `NCCNCCNCCN` [Trien, triethylenetetramine], in data set [12], the “log K1 (stability constant for the MLc species), Zn(II)” value was 11.9. Besides, the “log K1 app, Zn(II)” value in data set [1] was 7.8.
As for `c1ccc(-c2ccccn2)nc1` [biPy, 2,2′-bipyridine], in [10], the “log K1 app, Cu(II)” value is listed as 8.1. In data set [11], the “log K1 (stability constant for the MLc species), Cu(II)” value is 8.1 and the “log K2 … Cu(II)” value is listed as 5.5. In data set [1], the “log Kapp of comparison chelators for Zn(II)” value is on record as “≈ 5”. Further, the “number of ZnCl2 equivalent for 15 μM of ligand to be entirely in the form of Zn(II) complex” value in data set [2] came out at 250 eq ZnCl2.

As usually defined, the logD is the decadic logarithm of the distribution of all forms, ionised or not, between an organic phase and buffer at a given pH. Low values mean lower lipophilicity, high ones higher lipophilicity.
